From patent US6838084B1, “Cytotoxic T-cell epitopes of the papilloma virus l1-protein and use thereof in diagnosis and therapy” (priority 1999, dated 2005)

Assays:
[1] = system: CVLP-stimulated T cells; experiment: Restimulation of CVLP-stimulated T cells with peptide pools, HLA A24-positive donor; format: cell-based, human; conditions: common to pools A and 2
Experimental: The name of the particular peptide pool with which the BLCLs were loaded is listed from left to right. “None” represents BLCLs which were incubated only with buffer.
The 20 mer peptides 1 to 51 were combined in peptide pools A to H and 1 to 7 according to the matrix
The T cells of an HLA A1-positive donor were then restimulated in 100 μl of medium at 37° C. with the peptide pools in the presence of 10 IU/ml IL2. In this connection, such amounts of peptide pools were used that for each individual peptide 1 μg/ml was added. Cells incubated only with buffer served as a negative control.
After one hour, 1 μl of Golgi Plug was added. The cells were incubated at 37° C. for a further 5 hours. The cells were then fixed and permeabilized, and stained with α-hum CD8/PE, with α-hum CD4/Cychrome and with α-hum γ-interferon/FITC. The cells were examined in a FACScan calibur with respect to their label and the data were analyzed with the aid of Cellquest software.
Furthermore, the T cells of an HLA A24-positive donor were restimulated with the peptide pools as above and analyzed.

[2] = system: BLCL cells of an HLA A24-positive donor; experiment: Lysis of BLCL cells loaded with peptide 9 (51Cr release); format: cell-based, human
Experimental: The target cells were lysed by T cells stimulated with peptides 1-43 (=effector cells) . […] The % values were calculated according to the formula given in Example 7.
BLCL cells of an HLA A24-positive donor were incubated with […] at 37° C. for one hour, washed three times with medium and divided into 2 aliquots. 10 μg/ml of peptide 9 were added to one aliquot of the cells, and the other aliquot served as a negative control in the absence of a peptide. Subsequently, in each case 2000 cells (=target cells). were added to increasing amounts of T cells (=effector cells) in a total volume of 150 μl. The T cells had been stimulated previously over 5 weeks with a mixture of 43 peptides (peptides 1-43, 1 μg/ml each). Reaction mixtures for spontaneous and maximum cell lysis were set up in parallel. For spontaneous lysis, target cells which were incubated in medium were used, and for maximum lysis target cells which were incubated with 0.5% Triton were used. The mixtures were incubated at 37° C. for 5 h. 50 μl of mixture supernatant were applied to Luma plates and dried at room temperature overnight. On the following morning, the amount of radioactive ^51Cr was determined with the aid of a Canberra-Packerd B-plate counter (counts) and compared to the maximal lysed cells of the Triton mixture. The percentage of specific lysis was determined according to the formula: x=100·(counts−spontaneous counts)/(maximal counts−spontaneous counts).

## SFYNPDTQRLVWACVGVEVG [Peptide 9]
[1]
  peptide responsible for restimulation, deduced from pool matrix: in all probability responsible for restimulation of CVLP-stimulated T cells
[2]; 10 μg/ml peptide, effector T cells stimulated 5 weeks with peptides 1-43, 5 h, FIG. 8
  lysis of peptide-loaded BLCL target cells by T cells (51Cr release): lyse BLCL cells loaded with peptide 9 effectively
[2]; Table 2
  Epitop-Information (HLA restriction): HLA A24 restr.
  Epitop-Information (epitope type): cytotoxic epitope
[2]; conclusion from FIG. 8
  epitope classification: HLA A24-restricted cytotoxic T-cell epitope
